The values that follow come from PubChem BioAssay (NCI).

Assay in all cases: growth of human tumour cells (NCI), 48 h
In assay [1] the test system is HCC-2998 colon.
In assay [2] the test system is OVCAR-4 ovarian.
In assay [3] the test system is IGROV1 ovarian.
The subject of assay [4] is SK-MEL-5 melanoma.
Assay [5] deals with 786-0 renal.
The test system of assay [6] is U251 CNS.
For assay [7], the system named is OVCAR-3 ovarian.
In assay [8] the test system is CAKI-1 renal.
Assay [9] concerns MDA-MB-435.

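Growth conditions: 96-well plates. Treatment: test compound, 48 hours, 5 concentrations. Analysis: linear interpolation between bracketing concentrations; unreached endpoints set to highest concentration. GI50: concentration for 50% inhibition of growth. TGI: concentration producing complete growth inhibition.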 Some results are limits rather than exact numbers.

As for `CCC(C)(C)n1c(C)nc2c1C(=O)c1ccccc1C2=O`, the TGI in [1] was over 100 µM; in assay [2], over 100 µM; in [3], over 100 µM; in assay [4] it was 33.7 µM; in [5], over 100 µM; in assay [6], over 100 µM. Further, the TGI in assay [7] is over 100 µM.

As to `c1ccc2c(c1)CCc1c(-c3ccncc3)n[nH]c1-2`, the TGI is 94.2 µM in [1]; 89.2 µM in assay [3]; 32.1 µM in [4]; over 100 µM in [5]; 57.8 µM in [6]; 33.3 µM in assay [7]. Further, the TGI in assay [8] was 73.4 µM.

For `CC[C@@H]1NC(C(=O)OC)Cc2c1[nH]c1ccccc21` (stereo not given in full), the TGI in assay [1], in [2], in [3], in assay [4], in [5] and in assay [6] was over 100 µM each time. For the same compound, the TGI in assay [7] and in assay [8] was over 100 µM throughout.

As for `COc1cc(C[P+](c2ccccc2)(c2ccccc2)c2ccccc2)cc(OC)c1OC`, the TGI in assay [1], in [2], in assay [3], in [4], in assay [5] and in [6] was over 100 µM each time. Further, the TGI in assay [7] and in assay [8] was over 100 µM in each case.

As for `C/C(=N\NC(N)=O)c1sc(-c2nc(C)c(/C(C)=N/NC(N)=O)s2)nc1C`, the TGI in assay [1], in assay [2], in assay [3], in assay [4], in assay [5] and in assay [6] was over 100 µM throughout. Further, the TGI in [7] and in [8] was over 100 µM throughout.

With `CC12c3ccccc3C(OC=O)(c3ccccc31)C1(C)c3ccccc3C2(OC=O)c2ccccc21`, the TGI in [1], in [2], in assay [3], in assay [4], in [5] and in assay [6] was over 100 µM throughout. The TGI in [7] and in [8] was over 100 µM in each case.

Turning to `CC1=C(C(=O)Nc2ccccc2)C(c2ccc(Cl)c(Cl)c2)C(C(=O)Nc2ccccc2)=C(C)N1`, the TGI in [2] is 27.7 µM; in assay [3] it was 37.1 µM; in assay [4] it was 28.7 µM; in assay [5], 25.7 µM; in assay [6], 27.6 µM; in assay [7], 25.3 µM.

With `CC(C)C1CN(C(=O)OCc2ccccc2)C2N1C(=O)C2(C)OCc1ccccc1` (stereo not given), the TGI in assay [1] was over 100 µM; in [2], over 100 µM; in [3] it was over 100 µM; in assay [4], 29.5 µM; in assay [5] it was over 100 µM; in [6] it was over 100 µM. In [7], this compound came in with a TGI of over 100 µM.

Turning to `CCCCCCCCCCCC[N+]12CC[N+](CCN)(CC1)CC2`, the TGI in assay [1] is over 100 µM; in assay [2] it was over 100 µM; in assay [3], 39.7 µM; in assay [4], over 100 µM; in assay [5], over 100 µM; in assay [6], over 100 µM. Also, the TGI in [7] and in assay [8] was over 100 µM each time.

As for `COc1cc(/C=C2\CCCCC3=C2N=C2SC(C)=CN2C3c2cc(OC)c(OC)c(OC)c2)cc(OC)c1OC` (stereo not given), the GI50 in assay [1] is 74 µM; in assay [2] it was 12.3 µM; in [3] it was 63.5 µM; in [9], 24.3 µM; in assay [4], 0.077 µM; in [5], 40.5 µM. In addition, the GI50 in assay [6] is 19.2 µM; in assay [7], 23.7 µM; in [8], 73.3 µM. The TGI in assay [1] was over 100 µM; in [2], over 100 µM; in assay [3], over 100 µM; in [9], over 100 µM; in assay [4] it was 21 µM; in assay [5], over 100 µM. The TGI in assay [6], in [7] and in assay [8] was over 100 µM throughout.

Take `O=c1[nH]c(=O)n(C2CC(O)C(CO)O2)cc1OS(=O)(=O)C(F)(F)F` (stereo not given): the TGI in assay [1], in [2], in [3], in assay [4], in assay [5] and in [6] was over 100 µM each time. Moreover, the TGI in [7] and in assay [8] was over 100 µM throughout.

On to `O=C1c2cccc3cccc(c23)C(=O)N1CCN(CCO)CCO`, for which the TGI in assay [1] is 84.9 µM; in assay [2], 66 µM; in assay [3] it was over 100 µM; in [4] it was 33.6 µM; in assay [5], over 100 µM; in [6] it was over 100 µM. For the same compound, the TGI in assay [7] was over 100 µM.

As for `O=C1C=C(Nc2ccc(Cl)cc2C(=O)c2ccccc2)c2ccccc2C1=O`, the TGI in assay [1], in [2], in assay [3], in [4], in assay [5] and in [6] was over 100 µM each time. Moreover, the TGI in assay [7] and in [8] was over 100 µM in each case.

As for `CN(C)CCNC(=O)Cc1ccccc1Nc1c(Cl)cccc1Cl`, the TGI in assay [1] amounted to 24.7 µM; in assay [2], 50.6 µM; in [3], 38.4 µM; in [4], 30.2 µM; in assay [5] it was 25.7 µM; in assay [6], 23.6 µM. The same compound returned a TGI in [7] of 36.1 µM.

`Nc1c(S(=O)(=O)c2ccc(Cl)cc2)c2nc3ccccc3nc2n2ccnc12`: the TGI is over 100 µM in [1]; 33.3 µM in assay [2]; over 100 µM in assay [3]; over 100 µM in [4]; over 100 µM in assay [5]; over 100 µM in assay [6]. Further, the TGI in [7] was over 100 µM.

With `CN1Nc2ccccc2CC1=O`, the TGI in assay [1], in assay [2], in assay [3], in assay [4], in [5] and in [6] was over 100 µM in each case. Moreover, the TGI in assay [7] and in assay [8] was over 100 µM each time.
